Results on 75 molecules are retold here after PubChem BioAssay AID1996.

Values after ≈ are worked out from the molar mass of the structure shown. A value given as a limit tells only on which side of the number the result lay.

The conditions of the data set: buffer; pH 7.4; 200.0 µM.
For the molecule `CCOC(=O)Cn1cc(C#N)c(=O)[nH]c1=O`, the solubility (kinetic) (usually solubility judged after dilution from a stock solution rather than from solid) was more than 33.5 µg/mL. `COC(=O)c1ccc(CNC(=O)COC(=O)c2cccs2)cc1`: the solubility (kinetic) was 10.1 µg/mL (≈ 30.3 µM). Molecule `Cc1ccc(C)c(S(=O)(=O)N(C)Cc2cccs2)c1` showed a kinetic solubility of 9.9 µg/mL (≈ 33.5 µM).

As to `Cc1ccc(S(=O)(=O)NCCC(=O)Nc2cccc(S(=O)(=O)N3CCCC3)c2)cc1C`, the solubility (kinetic) came to 30.5 µg/mL (≈ 65.5 µM). For `Cn1ccnc1C(OC(=O)c1ccccc1)C(F)(F)F` (stereo not given) the value was more than 42.6 µg/mL; for `COC(=O)c1sccc1S(=O)(=O)Nc1ccc(C)cc1`, 5 µg/mL (≈ 16.1 µM); for `CC(N=Cc1c(O)n(C2CC2)c(=S)[nH]c1=O)c1ccccc1` (stereo not given), 2.6 µg/mL (≈ 8.24 µM). Turning to `O=C(Nc1ccc(Cl)cc1)Nc1ccc(Oc2cccnc2)nc1`, the kinetic solubility was 0.7 µg/mL (≈ 2.05 µM). This solubility kinetic lies about 3.7-fold lower than the previous one. For `CCN(C(=O)C1=COCCO1)c1nc2c(C)cccc2s1` the value was 7.5 µg/mL (≈ 24.6 µM).

Molecule `Cc1[nH]c2ccccc2c1C(=O)CN1CC(C)OC(C)C1` (stereo not given) displayed a kinetic solubility of 39.4 µg/mL (≈ 138 µM). Compared with the last molecule, the solubility kinetic is about 5.3-fold higher. `O=C(NCCCO)c1c(O)c2cccc3c2n(c1=O)CCC3`: the solubility (kinetic) is more than 45.3 µg/mL.

With `CCNc1nc(NCC)nc(N(CC)C(N)=S)n1`, the solubility (kinetic) worked out at 10 µg/mL (≈ 37.1 µM).

As for `CC(=O)Nc1c(-c2ccc3ccccc3c2)nc2ccccn12`, the solubility (kinetic) came out at 10.7 µg/mL (≈ 35.5 µM). For `Cc1c(C)n(-c2ccccc2)c2ncnc(NCCCN(C)C)c12` the value was more than 48.5 µg/mL; for `CC(=O)c1sc(-c2ccccc2)cc1NS(=O)(=O)c1ccccc1`, less than 0.8 µg/mL; for `Cc1cc(C)cc(NC(=O)Nc2ccc3ccccc3n2)c1`, less than 0.2 µg/mL. `O=C(CN1C(=O)NC2(CCCC2)C1=O)Nc1nc(-c2ccccc2)cs1` displayed a solubility (kinetic) of 1.7 µg/mL (≈ 4.59 µM). `Cc1csc(NC(=O)c2ccc(=O)[nH]c2)n1` displayed a solubility (kinetic) of more than 35.3 µg/mL. `Cc1c(C)n(CC(O)CN2CCN(C)CC2)c2ccccc12` (stereo not given) displayed a kinetic solubility of 43.3 µg/mL (≈ 144 µM). `CSc1nsc(SCC(=O)Nc2ccc(O)c(C(=O)O)c2)n1` yielded a solubility (kinetic) of more than 53.6 µg/mL. For `CC1CCc2sc(C(=O)NCCCn3ccnc3)cc2C1` (stereo not given) the value was 35 µg/mL (≈ 115 µM). Consider `Cc1cccc(SCC(=O)Nc2ccc3c(c2)OCCO3)c1`, for which the solubility (kinetic) was 36.4 µg/mL (≈ 115 µM). Turning to `O=C(CNC(=O)c1ccccc1F)c1ccccc1`, the kinetic solubility was found to be 32.5 µg/mL (≈ 126 µM). For `COc1cccc(NC(=O)[C@@H]2CCC(=O)N2C2OC(=O)c3ccccc32)c1` (stereo not given in full) the value was more than 55 µg/mL; for `CN1CCN(Cc2cn(C)c3ccccc23)CC1CCO` (stereo not given), 32.3 µg/mL (≈ 112 µM). Take `COc1ccccc1Cn1c(C)nc2ccccc21`: the kinetic solubility stood at 37 µg/mL (≈ 147 µM).

Molecule `Cc1oncc1C(=O)Nc1cccc2ccccc12` returned a solubility (kinetic) of 34 µg/mL (≈ 135 µM). For the molecule `Cc1cc(NC(=O)C(=O)NCc2cccc(Cl)c2)no1`, the solubility (kinetic) is 3.2 µg/mL (≈ 10.9 µM). `CN(Cc1ccccc1)c1ncc(C=O)s1` yielded a solubility (kinetic) of 27.8 µg/mL (≈ 120 µM). Against the preceding molecule, the solubility kinetic is about 8.7-fold higher. As for `O=C(O)CC1(CC(=O)Nc2ccc3ccccc3n2)CCCCC1`, the solubility (kinetic) is more than 49 µg/mL. With `Cc1ccc(NC(=O)CNC(=O)c2ccc(C)o2)cc1`, the solubility (kinetic) was more than 40.8 µg/mL.

With `COc1ccc(C(=O)Nc2ccc(S(=O)(=O)N3CCOCC3)cc2)cc1`, the kinetic solubility was 2.9 µg/mL (≈ 7.7 µM). Consider `Cc1ccc(C)c(C(C)NC(=O)C2CCCO2)c1` (stereo not given), for which the solubility (kinetic) is 36.7 µg/mL (≈ 148 µM). On to `Cc1sc2ncnc(N3CCN(S(=O)(=O)c4ccc(C(C)(C)C)cc4)CC3)c2c1C`, for which the kinetic solubility turned out to be 2.8 µg/mL (≈ 6.3 µM). For `O=C(COc1ccccc1)Nc1cc2c3c(c1)CC(=O)N3CCC2` the value was more than 48.4 µg/mL. `CS(=O)(=O)N(CC(=O)N1CCCCCC1)c1cccc([N+](=O)[O-])c1` came in with a solubility (kinetic) of more than 53.3 µg/mL. For `C=CC[N+]1(CC=C)CCOCC1.[Br-]` the value was more than 37.2 µg/mL. Take `Cc1ccc2c(c1)N(CC(=O)N1CCCCC1)C(=O)CO2`: the kinetic solubility is more than 43.3 µg/mL. As to `Cc1cccc(CC2CC(=O)N(c3ccc([N+](=O)[O-])cc3)C2=O)c1` (stereo not given), the kinetic solubility was found to be 21 µg/mL (≈ 64.7 µM). In the case of `CN(C)c1ccc(CCc2ccc(N)cc2)cc1`, the kinetic solubility was 21 µg/mL (≈ 87.4 µM). `CC(C)(C)c1ccc(OC(=O)N2CCOCC2)cc1` returned a solubility (kinetic) of 31.9 µg/mL (≈ 121 µM). `O=C(COC(=O)c1cccc(S(=O)(=O)N2CCOCC2)c1)NCc1ccccc1`: the solubility (kinetic) is more than 62.8 µg/mL.

Consider `c1ccc2cc(Cn3ccnc3)ccc2c1`, for which the solubility (kinetic) stood at 28.5 µg/mL (≈ 137 µM). The molecule `O=C(COC(=O)/C=C/c1ccc(Cl)cc1Cl)NCC1CCCO1` (stereo not given) came in with a kinetic solubility of 10.4 µg/mL (≈ 29 µM). As to `OCc1cccc[n+]1CCc1ccccc1.[Br-]`, the kinetic solubility was more than 44.1 µg/mL. `CC(CCc1ccccc1)NC(=O)COC(=O)c1cccn1C` (stereo not given) registered a kinetic solubility of more than 47.2 µg/mL. Molecule `Cl.OC(CNCc1ccncc1)c1ccccc1` (stereo not given) returned a kinetic solubility of more than 39.7 µg/mL. `O=C(CNc1cccc(Cl)c1)c1ccc(Br)cc1` registered a solubility (kinetic) of less than 0.7 µg/mL. For `CCN1CCCC1CNS(=O)(=O)c1ccc(F)c(Cl)c1` (stereo not given) the value was 44.2 µg/mL (≈ 138 µM); for `O=C(CCc1ccccc1)Nc1cc2c3c(c1)CC(=O)N3CCC2`, more than 48.1 µg/mL. On to `O=S(=O)(CCN1CCOCC1)c1ccc(OC(F)(F)F)cc1`, for which the kinetic solubility was more than 50.9 µg/mL. Consider `O=C(CC1CC2CCC1C2)NCCc1ccc(Cl)cc1` (stereo not given), for which the solubility (kinetic) came out at 29.7 µg/mL (≈ 102 µM). With `COc1cccc(-c2nc(-c3ccccc3)c(-c3ccccc3)[nH]2)c1OCC(=O)O`, the solubility (kinetic) is more than 60.1 µg/mL. For the molecule `CC(=O)C1=C(C)OC(N)=C(C#N)C1c1cccc2ccccc12` (stereo not given), the solubility (kinetic) worked out at 37.6 µg/mL (≈ 124 µM). Molecule `O=C(Cc1ccc2ccccc2c1)Nc1ccccc1Br` registered a solubility (kinetic) of less than 0.7 µg/mL. Molecule `CC(=O)c1cn(N2CCCCC2)c(=O)[nH]c1=O` had a kinetic solubility of more than 35.6 µg/mL.

`O=C(COC(=O)CN1C(=O)C2CCCCC2C1=O)Nc1ccc(F)c(F)c1F` (stereo not given): the kinetic solubility is more than 59.8 µg/mL.

`COC(=O)CC1=C(C(=O)OC)[C@@H](c2ccccc2[N+](=O)[O-])C(C#N)=C(N)O1` showed a solubility (kinetic) of more than 56 µg/mL. The molecule `Cn1cnnc1SCC(=O)NCCC1=CCCCC1` gave a solubility (kinetic) of more than 42.1 µg/mL. For `O=S(=O)(c1ccc(-c2ccon2)s1)N1CCOCC1` the value was more than 45.1 µg/mL. For `CCOP(=O)(OCC)C(NC(=O)Nc1ccc(C)cc1)C(N)=O` (stereo not given), the solubility (kinetic) is more than 51.5 µg/mL. `COC(=O)c1cc(Cl)nc2ccccc12` displayed a solubility (kinetic) of 7.9 µg/mL (≈ 35.6 µM).

`CCCNC(=O)c1ccc(C)c(NC(=O)C2=C(C)OCCS2)c1`: the solubility (kinetic) was more than 50.2 µg/mL. Regarding `CCOc1cccc(/C=N/NC(=O)c2cccnc2)c1O`, the kinetic solubility is more than 42.8 µg/mL. `Cc1ccsc1-c1nc(CN2CCCC2c2ccc(F)cc2)c(C)o1` (stereo not given) yielded a solubility (kinetic) of 14.9 µg/mL (≈ 41.8 µM). For `COc1ccc(OCC(=O)N2CCCC2=O)c([N+](=O)[O-])c1` the value was 42.8 µg/mL (≈ 145 µM). `CC(C)c1ccc(N=C(N)N=C(N)N)cc1.Cl`: the solubility (kinetic) is more than 38.4 µg/mL. Molecule `COc1cccc(S(=O)(=O)Nc2cccc(C(=O)N3CCCC3)c2)c1` displayed a solubility (kinetic) of 47.9 µg/mL (≈ 133 µM). For `CC(=O)Nc1ccc(N2C(=O)CSC2c2ccccc2[N+](=O)[O-])cc1` (stereo not given) the value was 41.1 µg/mL (≈ 115 µM); for `CN1CCN(S(=O)(=O)c2ccc(Cl)s2)CC1`, more than 42.1 µg/mL. With `O=C(Cc1ccccc1)N/N=C/c1ccc[nH]1`, the kinetic solubility is more than 34.1 µg/mL. As for `COc1ccc(Cn2c(=O)oc3ccc(C)cc32)cc1`, the kinetic solubility was found to be 1.2 µg/mL (≈ 4.46 µM). With `Cc1ccc(N/C=C/C(=O)c2ccco2)c(O)c1`, the kinetic solubility is 1.4 µg/mL (≈ 5.76 µM). Turning to `CN(C)CCC=C1c2ccccc2CCc2ccccc21.Cl`, the kinetic solubility was more than 47.1 µg/mL. Turning to `CC(OC(=O)C1CC1)C(=O)Nc1cc(Cl)cc(Cl)c1` (stereo not given), the solubility (kinetic) was more than 45.3 µg/mL.
